Laboratory results: patent publication USRE40387E1, “Pharmaceutical compositions, dosage forms and methods for oral administration of epothilones” (Bristol-Myers Squibb Company, priority 2001, dated 2008)
Where “and” joins values, the source holds several entries; their conditions need not be identical. Equal values may be shown once. Read-outs that look alike come from different tables or passages of the source.

Legend:
[1] = Kinetics in single dose IV toxicology study in dogs; format: in vivo; conditions: for AUC / Cmax: both sexes, dog, plasma; for Cmax: read-out: mean CMAX of Compound (B) in plasma; for mean CMAX in plasma: combined across gender
Method: The kinetics of Compound (A) were also evaluated as part of a single dose IV toxicology study. Compound (A) was given as an IV infusion (ca. 15 min) at doses of 0.5 and 5 mg/kg to 2 dogs/gender/dose. […] Blood samples were obtained over a period of 48 h after dosing, and plasma concentrations of Compound (A) and Compound (B) were determined using the LC/MS/MS assay with a standard curve range of 2-500 ng/mL for both analytes. […] T-HALF, MRT(INF), CLT, and VSS were not determined due to the limited sampling used in the study.

[2] = Toxicokinetics in single dose IV toxicology study in rats; format: in vivo
Method: The toxicokinetics of Compound (A) were evaluated in a single dose IV toxicology study in rats. […] Compound (A) was given as an IV infusion (ca. 3 min) at doses of 10, 25, and 30 mg/kg to 3 rats/gender/dose. Serial blood samples were obtained over a period of 24 h after dosing, and plasma concentrations of Compound (A) and Compound (B) were determined using an LC/MS/MS assay with a standard curve range of 2-500 ng/mL for both analytes. At a dose of 10, 25, and 30 mg/kg, the mean CMAX values of Compound (A) in male rats were 6422, 19066, and 24414 ng/mL, respectively; in female rats, the mean CMAX values were 8384, 20524, and 25054 ng/mL, respectively. […] For doses in a ratio of 1:2.5:3 proportion, the mean CMAX values of Compound (A) for males and females were in the ratio of 1:3.0:3.8 and 1:2.5:3.0, respectively, and the AUC values were in the ratio of 1:3.1:4.9 and 1:3.5:4.2, respectively. T-HALF, mean residence time over the time interval zero to infinity MRT(INF), total body clearance (CLT), and VSS were not determined due to the limited sampling used in the study.

[3] = Pharmacokinetics and absolute oral bioavailability of formulations in beagle dogs; format: in vivo, adult male beagle dogs; conditions: for AUC(0-t) / Cmax / Tmax: male, beagle, dog, plasma; for AUC(0-t): T = 24 h; for Cmax / Tmax / CMAX, mean / TMAX, median: n = 3; for Tmax: read-out: TMAX, median
Method: The absolute oral bioavailability of various formulations of Compound (A) in adult male beagle dogs (n=4) was evaluated. Compound (A) was given as a 10 min intravenous (IV) infusion (0.5 mg/kg), a buffered oral solution (2 mg/kg), and a buffered oral suspension (1 mg/kg).
The design was a single-dose, four-treatment, four-period, non-randomized, crossover design. Compound (A) was given to four adult male beagle dogs as a 10 min IV infusion (0.5 mg/kg), a buffered oral solution (2 mg/kg), or a buffered oral suspension (2 mg/kg). […] Upon reconstitution, the pH of the buffered suspension was about 8.0 and the strength was approximately 0.75 mg/mL. Due to cumulative toxicity the dose for the oral suspension scheduled during the third treatment period was reduced from 2 mg/kg to 1 mg/kg. Furthermore, the fourth treatment was not administered for lack of an evaluable formulation. The wash-out period between treatments was at least 7 days. Serial blood samples were collected over 24 h after dose administration and concentrations of Compound (A) and Compound (B) were determined using a LC/MS/MS assay with a standard curve range of 2-500 ng/mL for both analytes. The LC/MS/MS assay was the same as used in Example 1.
Analytical runs consisted of standard, quality control (QC), and study samples. The plasma volume used for analysis was 0.2 mL and the standard curve range was 2 to 500 ng/mL for both analytes, defining the lower limit of quantitation (LLQ) and upper-limit of quantitation (ULQ), respectively. If the predicted concentration of a study sample was less than that of the lowest standard, the value of the predicted concentration was reported as <LLQ. […]. If the predicted concentration was greater than that of the highest standard, the result of that analysis was reported as >ULQ and an appropriate volume of that sample was diluted with blank plasma and reanalyzed.
Four adult male dogs with venous access for drug administration and blood collection were selected for the study. The dogs were acclimated for at least one week prior to study initiation and were housed in individual steel cages. Animals were identified by a unique number and by a tag attached to the cage. The dogs were offered drinking water ad libitum, and fed once a day with standard canine diet except for an overnight (about 12 h) fast prior to dosing which was continued until 4 h after dosing. Fifteen (15) minutes prior to administration of the buffered oral suspension, the dogs were pretreated with pentagastrin (6 :g/kg; intramuscularly). Pentagastrmn pretreatment was used only for the oral suspension leg. The IV dose was administered as a constant-rate infusion over a period of 10 min using a calibrated infusion pump. The oral solution and suspension doses were administered by gavage and the gavage tubes were rinsed with 20 mL of water.
Serial blood samples (3 mL) were collected at predose, and 10 min (IV only; end-of-infusion), 15 min, 20 min (IV only), 30 min, and 45 min, and 1 h, 1.5 h, 2 h, 4 h, 6 h, 8 h, 12 h, and 24 h after dosing. Blood samples were collected into Vacutainer® tubes containing K3-EDTA as the anticoagulant and the contents of each tube were mixed by gently inverting the tube. The blood samples were then placed immediately on chipped ice. Plasma was obtained within 30 min of collection by centrifuging the tubes at approximately 4° C. and 2000×g for 5 min. Plasma samples were stored at or below −20° C. until analyzed for the concentrations Compound (A) and Compound (B).
The peak plasma concentration (CMAX) and the time to reach peak concentration (TMAX) were recorded directly from experimental observations. The area under the plasma concentration-time curve from time zero to T (AUC(0−T)), where T is the time of the last measurable plasma concentration, was calculated using the trapezoidal rule (See, M. Gibaldi, et al., Pharmacokinetics, 2nd ed., New York, N.Y., Marcel Decker, p. 445-91982). […]

[4] = IV infusion of Compound (A) 0.5 mg/kg
[5] = IV infusion of Compound (A) 5 mg/kg
[6] = dogs, IV Compound (A) 0.5 mg/kg
[7] = dogs, buffered oral solution of Compound (A) 2 mg/kg
[8] = female rats, IV infusion 10 mg/kg
[9] = female rats, IV infusion 25 mg/kg
[10] = female rats, IV infusion 30 mg/kg
[11] = male rats, IV infusion 10 mg/kg
[12] = male rats, IV infusion 25 mg/kg
[13] = male rats, IV infusion 30 mg/kg
[14] = two dogs with both IV and oral solution data

In the case of `CC1=NC(/C=C/[C@@H]2C[C@@H](O)[C@](C)(O)CCC[C@H](C)[C@H](O)[C@@H](C)C(=O)C(C)(C)[C@@H](O)CC(=O)N2)CS1` (some centres unmarked) [Compound (B)], the AUC [1, 4] is reported as 55 ng·h/mL, the Cmax [1, 4] is reported as 95.6 ng/mL and the AUC [1, 5] is reported as 1110 ng·h/mL. For the same compound, the Cmax [1, 5] was 984 ng/mL, the AUC ([2]; both sexes, rat, plasma, rats, IV Compound (A) 10-30 mg/kg, read-out: AUC of Compound (B) across gender and dose groups) was 222 to 2000 ng·h/mL and the Cmax ([2]; both sexes, rat, plasma, rats, IV Compound (A) 10-30 mg/kg, read-out: CMAX of Compound (B) across gender and dose groups) was 499 to 1790 ng/mL. The mean plasma concentration ([3]; dogs, IV Compound (A) 0.5 mg/kg, 0.17 h) was 0 ng/mL, the mean plasma concentration ([3]; dogs, IV Compound (A) 0.5 mg/kg, 0.75 h) was 0 ng/mL and the mean plasma concentration ([3]; dogs, IV Compound (A) 0.5 mg/kg, 1 h) was 0 ng/mL. For the same compound, the mean plasma concentration ([3]; dogs, IV Compound (A) 0.5 mg/kg, 1.5 h) was 0 ng/mL, the mean plasma concentration ([3]; dogs, IV Compound (A) 0.5 mg/kg, 2 h) was 0 ng/mL and the mean plasma concentration ([3]; dogs, IV Compound (A) 0.5 mg/kg, 4 h) was 0 ng/mL. It also gave a mean plasma concentration ([3]; dogs, IV Compound (A) 0.5 mg/kg, 6 h) of 0 ng/mL, a mean plasma concentration ([3]; dogs, IV Compound (A) 0.5 mg/kg, 8 h) of 0 ng/mL and a mean plasma concentration ([3]; dogs, IV Compound (A) 0.5 mg/kg, 12 h) of 0 ng/mL. The mean plasma concentration ([3]; dogs, IV Compound (A) 0.5 mg/kg, 24 h) was 0 ng/mL, the mean plasma concentration ([3]; dogs, buffered oral solution of Compound (A) 2 mg/kg, 0.25 h) was 4.1 ng/mL and the mean plasma concentration ([3]; dogs, buffered oral solution of Compound (A) 2 mg/kg, 0.5 h) was 21.3 ng/mL. It also gave a mean plasma concentration ([3]; dogs, buffered oral solution of Compound (A) 2 mg/kg, 0.75 h) of 27.2 ng/mL, a mean plasma concentration ([3]; dogs, buffered oral solution of Compound (A) 2 mg/kg, 1 h) of 23.8 ng/mL and a mean plasma concentration ([3]; dogs, buffered oral solution of Compound (A) 2 mg/kg, 2 h) of 8.4 ng/mL. It also gave a mean plasma concentration ([3]; dogs, buffered oral solution of Compound (A) 2 mg/kg, 4 h) of 2.4 ng/mL, a mean plasma concentration ([3]; dogs, buffered oral solution of Compound (A) 2 mg/kg, 6 h) of 0.8 ng/mL and a mean plasma concentration ([3]; dogs, buffered oral solution of Compound (A) 2 mg/kg, 8 h) of 0 ng/mL. The mean plasma concentration ([3]; dogs, buffered oral solution of Compound (A) 2 mg/kg, 12 h) was 0 ng/mL, the mean plasma concentration ([3]; dogs, buffered oral solution of Compound (A) 2 mg/kg, 24 h) was 0 ng/mL and the AUC(0-t) [3, 6] was 0.69 ng·h/mL. For the same compound, the Cmax [3, 6] was 3.8 ng/mL, the Tmax [3, 6] was 10.2 min and the AUC(0-t) [3, 7] was 45.2 ng·h/mL. It also gave a Cmax [3, 7] of 27.2 ng/mL and a Tmax [3, 7] of 45 min.

For `C/C(=C\c1csc(C)n1)[C@@H]1C[C@@H]2O[C@]2(C)CCC[C@H](C)[C@H](O)[C@@H](C)C(=O)C(C)(C)[C@@H](O)CC(=O)N1` (relative stereo) [Compound (A), [1S-[1R*,3R*(E),7R*,10S*,11R*,12R*,16S*]]-7,11-dihydroxy 8,8,10,12,16-pentamethyl-3-[1-methyl-2-(2-methyl-4-thiazolyl)ethenyl-4-aza-17-oxobicyclo[14.1.0]heptadecane-5,9-dione], the “mean AUC in plasma” value [1, 4] was 316 ng·h/mL, the “mean CMAX in plasma” value [1, 4] was 218 ng/mL and the “mean AUC in plasma” value [1, 5] was 6925 ng·h/mL. For the same compound, the “mean CMAX in plasma” value [1, 5] was 5118 ng/mL, the “mean CMAX” value [2, 8] was 8384 ng/mL and the “mean area under the concentration vs. time curve (AUC)” value [2, 8] was 8156 ng·h/mL. For the same compound, the “mean CMAX” value [2, 9] was 20524 ng/mL, the “mean area under the concentration vs. time curve (AUC)” value [2, 9] was 28476 ng·h/mL and the “mean CMAX” value [2, 10] was 25054 ng/mL. The “mean area under the concentration vs. time curve (AUC)” value [2, 10] was 34563 ng·h/mL, the “mean CMAX” value [2, 11] was 6422 ng/mL and the “mean area under the concentration vs. time curve (AUC)” value [2, 11] was 3864 ng·h/mL. The “mean CMAX” value [2, 12] was 19066 ng/mL, the “mean area under the concentration vs. time curve (AUC)” value [2, 12] was 11980 ng·h/mL and the “mean CMAX” value [2, 13] was 24414 ng/mL. For the same compound, the “mean area under the concentration vs. time curve (AUC)” value [2, 13] was 19269 ng·h/mL, the “CMAX, mean” value [3, 6] was 1120 (189) ng/mL and the “TMAX, median” value [3, 6] was 10.2 min. The “AUC(0−T), mean (SD)” value [3, 7] was 560 (159) h.ng./mL, the “CMAX, mean” value [3, 7] was 365 (40.9) ng/mL and the “TMAX, median” value [3, 7] was 30 min. For the same compound, the “mean AUC after oral solution higher than dose-normalized mean AUC of oral toxicity study” value ([3]; dogs, oral solution 1.3 mL/kg vs 0.4 mL/kg) was “approximately 2 fold”, the “absolute oral bioavailability, individual dogs” value [3, 14] was 48.3% and 30.6% and the “absolute oral bioavailability, mean value” [3, 14] was 39.5%.
